Assay results from patent publication US8257478B2, “Use of marine fungus originated compounds as antifouling agents” (The Hong Kong University of Science and Technology, priority 2004, dated 2012).
≈ marks a conversion by molar mass, not a printed value.

Key:
[1] = test system: Pseudoalteromonas piscida; assay: agar disc diffusion assay, inhibition zone; format: cell-based; conditions: 50 μg/disc, 30° C., 24 h, read-out: Inhibition Zone Width
Method: (§1) Antibacterial activity was tested against bacteria using an agar disc diffusion assay method. Sterile paper discs (6 mm i.d.) impregnated with the substance under test at a concentration of 50 μg disc^−1 were applied onto the surface of an agar plate (plastic Petri dish) inoculated with one strain with sterile forceps and gently pressed down to ensure good contact with the surface. Blank discs treated with the same volume of DMSO were added. A control disc, containing streptomycin was used. After the application of discs, the plates were incubated at 30° C. for 24 h, and then the size of the inhibition zone was measured.
as §1, with “using” for “using an”, “assay.” for “assay method.”, “disc” for “disc,”, “h. The” for “h, and then the”, “measured. The results are presented in Table 8 and Table 9 for Cyclo (D)-Pro-(D)-Phe and b3-methyl-N-(2-phenylethyl)butanamide, respectively.” for “measured.”

Vibrio fluvialis = assay: agar disc diffusion assay, inhibition zone; format: cell-based; conditions: 50 μg/disc, 30° C., 24 h, read-out: Inhibition Zone Width
Method: as §1
as §1, with “using” for “using an”, “assay.” for “assay method.”, “disc” for “disc,”, “h. The” for “h, and then the”, “measured. The results are presented in Table 8 and Table 9 for Cyclo (D)-Pro-(D)-Phe and b3-methyl-N-(2-phenylethyl)butanamide, respectively.” for “measured.”

Micrococcus luteus = assay: agar disc diffusion assay, inhibition zone; format: cell-based; conditions: 50 μg/disc, 30° C., 24 h, read-out: Inhibition Zone Width
Method: as §1
as §1, with “using” for “using an”, “assay.” for “assay method.”, “disc” for “disc,”, “h. The” for “h, and then the”, “measured. The results are presented in Table 8 and Table 9 for Cyclo (D)-Pro-(D)-Phe and b3-methyl-N-(2-phenylethyl)butanamide, respectively.” for “measured.”

Moraxella phenylpyruvica = assay: agar disc diffusion assay, inhibition zone; format: cell-based; conditions: Psychrobacter phenylpyruvicus; 50 μg/disc, 30° C., 24 h; read-out: Inhibition Zone Width
Method: as §1
as §1, with “using” for “using an”, “assay.” for “assay method.”, “disc” for “disc,”, “h. The” for “h, and then the”, “measured. The results are presented in Table 8 and Table 9 for Cyclo (D)-Pro-(D)-Phe and b3-methyl-N-(2-phenylethyl)butanamide, respectively.” for “measured.”

Shewanella algae = assay: agar disc diffusion assay, inhibition zone; format: cell-based; conditions: 50 μg/disc, 30° C., 24 h, read-out: Inhibition Zone Width
Method: as §1
as §1, with “using” for “using an”, “assay.” for “assay method.”, “disc” for “disc,”, “h. The” for “h, and then the”, “measured. The results are presented in Table 8 and Table 9 for Cyclo (D)-Pro-(D)-Phe and b3-methyl-N-(2-phenylethyl)butanamide, respectively.” for “measured.”

[2] = test system: Staphylococcus haemolyticus; assay: agar disc diffusion assay, inhibition zone; format: cell-based; conditions: 50 μg/disc, 30° C., 24 h, read-out: Inhibition Zone Width
Method: as §1
as §1, with “using” for “using an”, “assay.” for “assay method.”, “disc” for “disc,”, “h. The” for “h, and then the”, “measured. The results are presented in Table 8 and Table 9 for Cyclo (D)-Pro-(D)-Phe and b3-methyl-N-(2-phenylethyl)butanamide, respectively.” for “measured.”

Vibrio sp. (NAP-4) = assay: agar disc diffusion assay, inhibition zone; format: cell-based; conditions: 50 μg/disc, 30° C., 24 h, read-out: Inhibition Zone Width
Method: as §1
as §1, with “using” for “using an”, “assay.” for “assay method.”, “disc” for “disc,”, “h. The” for “h, and then the”, “measured. The results are presented in Table 8 and Table 9 for Cyclo (D)-Pro-(D)-Phe and b3-methyl-N-(2-phenylethyl)butanamide, respectively.” for “measured.”

Vibrio harveyi = assay: agar disc diffusion assay, inhibition zone; format: cell-based; conditions: 50 μg/disc, 30° C., 24 h, read-out: Inhibition Zone Width
Method: as §1
as §1, with “using” for “using an”, “assay.” for “assay method.”, “disc” for “disc,”, “h. The” for “h, and then the”, “measured. The results are presented in Table 8 and Table 9 for Cyclo (D)-Pro-(D)-Phe and b3-methyl-N-(2-phenylethyl)butanamide, respectively.” for “measured.”

Pseudoalteromonas sp. = assay: agar disc diffusion assay, inhibition zone; format: cell-based; conditions: 50 μg/disc, 30° C., 24 h, read-out: Inhibition Zone Width
Method: as §1
as §1, with “using” for “using an”, “assay.” for “assay method.”, “disc” for “disc,”, “h. The” for “h, and then the”, “measured. The results are presented in Table 8 and Table 9 for Cyclo (D)-Pro-(D)-Phe and b3-methyl-N-(2-phenylethyl)butanamide, respectively.” for “measured.”

[3] = test system: Balanus amphitrite larvae; assay: in vivo; conditions: Balanus amphitrite, in vivo, 24 h
Method: (§2) The larval bioassay was conducted according to Rittschof et al. (1994), which is incorporated by reference herein in its entirety.
(§3) Toxicity of cyclo (D)-Pro-(D)-Phe was determined using 24-well polystyrene plates. Pure compound was dissolved in DMSO and added to autoclaved FSW to form different concentrations. Competent Balanus amphitrites larvae (10±2 individuals) were added to each well with 1 ml testing solution in 5 replicates. The wells containing FSW served as the control. The 24-well plates were incubated at 30° C. for 24 h. The percent mortality was determined by counting the number of dead larvae under a dissecting microscope.
(§4) The assay was conducted according to Rittschof et al. (1994). Data plotted are means+SD of five replicates.

in vivo = conditions: Balanus amphitrite (barnacle) larvae, in vivo
Method: as §2, §3, §4

Staphylococcus aureus = assay: agar disc diffusion assay, inhibition zone; format: cell-based; conditions: 50 μg/disc, 30° C., 24 h, read-out: Inhibition Zone Width
Method: as §1

Ruegeria sp. = assay: agar disc diffusion assay, inhibition zone; format: cell-based; conditions: 50 μg/disc, 30° C., 24 h; read-out: Inhibition Zone Width
Method: as §1

[4] = test system: barnacle Balanus amphitrite larvae; assay: anti-larval settlement bioassay in 24-well plates; format: in vivo; conditions: for EC50: Amphibalanus amphitrite, Balanus amphitrite larvae, read-out: EC50 (anti-larval settlement)
Method: Anti-larval settlement activity of 3-chloro-2,5-dihydroxy benzyl alcohol (compound 1) was conducted using 24-well polystyrene plates. Pure compound was dissolved in DMSO and added to autoclaved FSW at different concentrations. Competent Balanus amphitrites larvae (10±2 individuals) were added to each well with 1 ml testing solution in 5 replicates, and wells containing FSW (filtered seawater) served as control. The 24-well plates were incubated at 30° C. for 24 h. The percent settlement was determined by counting the number of settled larvae under a dissecting microscope. In all bioassays, FSW served as the control. Statistical calculations were performed with the SPSS (Statistical Package for the Social Sciences) software package, Version 11.
as §2, §4
For determining anti-larval settlement activity, adult Balanus amphitrile (Darwin) were collected from the intertidal zone in Hong Kong (22°19′N, 114°16′E). Nauplii obtained from several adults were mass-reared to cyprid stage at a density of 2 larvae ml^−1 in 0.22-μm-filtered seawater with 30 ppt salinity (FSW) using Chaetoceros gracilis Schutt as food and a rearing temperature of 28° C. Newly transformed cyprids were used for the experiment.
Anti-larval settlement activity of succinic acid against B. amphitrite was determined using 24-well polystyrene plates. Pure compound was dissolved in autoclaved FSW ranged from 60-140 μg ml^−1 for B. amphitrite. Competent larvae (15±2 individuals) were added to each well with 1 ml testing solution in 5 replicates, and wells containing FSW served as the control. The 24-well plates were incubated at 30° C. for 24 h. The percent larval settlement was determined by counting the number of settled individuals under a dissecting microscope and expressed as a proportion of the total number of larvae in the well.

[5] = solubility in organic solvents; format: physicochemical; conditions: at 25° C. in methanol, ethanol, propanol, butanol, ethyl acetate, acetone and acetonitrile
Vibrio halioticoli = assay: agar disc diffusion assay, inhibition zone; format: cell-based; conditions: 50 μg/disc, 30° C., 24 h, read-out: Inhibition Zone Width
Method: as §1, with “using” for “using an”, “assay.” for “assay method.”, “disc” for “disc,”, “h. The” for “h, and then the”, “measured. The results are presented in Table 8 and Table 9 for Cyclo (D)-Pro-(D)-Phe and b3-methyl-N-(2-phenylethyl)butanamide, respectively.” for “measured.”

Vibrio vulnificus = assay: agar disc diffusion assay, inhibition zone; format: cell-based; conditions: 50 μg/disc, 30° C., 24 h, read-out: Inhibition Zone Width
Method: as §1, with “using” for “using an”, “assay.” for “assay method.”, “disc” for “disc,”, “h. The” for “h, and then the”, “measured. The results are presented in Table 8 and Table 9 for Cyclo (D)-Pro-(D)-Phe and b3-methyl-N-(2-phenylethyl)butanamide, respectively.” for “measured.”

Vibrio furnissii = assay: agar disc diffusion assay, inhibition zone; format: cell-based; conditions: 50 μg/disc, 30° C., 24 h, read-out: Inhibition Zone Width
Method: as §1, with “using” for “using an”, “assay.” for “assay method.”, “disc” for “disc,”, “h. The” for “h, and then the”, “measured. The results are presented in Table 8 and Table 9 for Cyclo (D)-Pro-(D)-Phe and b3-methyl-N-(2-phenylethyl)butanamide, respectively.” for “measured.”

Loktanella hongkongensis = assay: agar disc diffusion assay, inhibition zone; format: cell-based; conditions: Limimaricola hongkongensis; 50 μg/disc, 30° C., 24 h; read-out: Inhibition Zone Width
Method: as §1, with “using” for “using an”, “assay.” for “assay method.”, “disc” for “disc,”, “h. The” for “h, and then the”, “measured. The results are presented in Table 8 and Table 9 for Cyclo (D)-Pro-(D)-Phe and b3-methyl-N-(2-phenylethyl)butanamide, respectively.” for “measured.”

Vibrio alginolyticus = assay: agar disc diffusion assay, inhibition zone; format: cell-based; conditions: 50 μg/disc, 30° C., 24 h, read-out: Inhibition Zone Width
Method: as §1, with “using” for “using an”, “assay.” for “assay method.”, “disc” for “disc,”, “h. The” for “h, and then the”, “measured. The results are presented in Table 8 and Table 9 for Cyclo (D)-Pro-(D)-Phe and b3-methyl-N-(2-phenylethyl)butanamide, respectively.” for “measured.”

Rhodovulum sp. = assay: agar disc diffusion assay, inhibition zone; format: cell-based; conditions: 50 μg/disc, 30° C., 24 h; read-out: Inhibition Zone Width
Method: as §1, with “using” for “using an”, “assay.” for “assay method.”, “disc” for “disc,”, “h. The” for “h, and then the”, “measured. The results are presented in Table 8 and Table 9 for Cyclo (D)-Pro-(D)-Phe and b3-methyl-N-(2-phenylethyl)butanamide, respectively.” for “measured.”

OCc1cc(O)cc(Cl)c1O [Compound 1, 3-chloro-2,5-dihydroxy benzyl alcohol]
zone of inhibition at 50 µg/disc [1]: 5 mm | zone of inhibition at 50 µg/disc (Vibrio fluvialis): 5.5 mm | zone of inhibition at 50 µg/disc (Micrococcus luteus): 6 mm | zone of inhibition at 50 µg/disc (Moraxella phenylpyruvica): 5.5 mm | zone of inhibition at 50 µg/disc (Shewanella algae): 4.5 mm | zone of inhibition at 50 µg/disc [2]: 6 mm | zone of inhibition at 50 µg/disc (Vibrio sp. (NAP-4)): 4 mm | zone of inhibition at 50 µg/disc (Vibrio harveyi): 3.5 mm | zone of inhibition at 50 µg/disc (Pseudoalteromonas sp.): 5.5 mm | therapeutic ratio LC50/EC50 [3]: 76.2 | LC50 at 24 h (in vivo): 267 µg/mL (≈ 1530 µM) | zone of inhibition at 50 µg/disc (Staphylococcus aureus): 5.5 mm | zone of inhibition at 50 µg/disc (Ruegeria sp.): 3.5 mm | EC50 [4]: 3.5 µg/mL (≈ 20 µM) | concentration at which compound started showing anti-settlement effects ([4]; as low as): 0.1 µg/mL | barnacle larval settlement ([4]; at 5 μg ml^−1, 24 h, 60% in the control): about 10% | solubility [5]: soluble

O=C1NC(Cc2ccccc2)C(=O)N2CCCC12 (stereo not drawn) [Compound 2, cyclo-(Pro-Phe)]
zone of inhibition at 50 µg/disc [1]: 0 mm | zone of inhibition at 50 µg/disc (Vibrio fluvialis): 1.2 ± 0.7 mm | zone of inhibition at 50 µg/disc (Micrococcus luteus): 0.5 mm | zone of inhibition at 50 µg/disc (Moraxella phenylpyruvica): 0 mm | zone of inhibition at 50 µg/disc (Shewanella algae): 0 mm | zone of inhibition at 50 µg/disc [2]: 0.8 ± 0.3 mm | zone of inhibition at 50 µg/disc (Vibrio sp. (NAP-4)): 1.3 ± 0.6 mm | zone of inhibition at 50 µg/disc (Vibrio harveyi): 0.5 mm | zone of inhibition at 50 µg/disc (Pseudoalteromonas sp.): 1.7 ± 0.6 mm | therapeutic ratio LC50/EC50 [3]: 1.70 | LC50 at 24 h (in vivo): 115 µg/mL (≈ 470 µM) | zone of inhibition at 50 µg/disc (Vibrio halioticoli): 0 mm | zone of inhibition at 50 µg/disc (Vibrio vulnificus): 1 ± 0.1 mm | zone of inhibition at 50 µg/disc (Vibrio furnissii): 0 mm | zone of inhibition at 50 µg/disc (Loktanella hongkongensis): 1.3 ± 0.6 mm | zone of inhibition at 50 µg/disc (Vibrio alginolyticus): 0 mm | zone of inhibition at 50 µg/disc (Rhodovulum sp.): 0 mm | EC50 [4]: 67.3 µg/mL (≈ 275 µM) | solubility [5]: soluble
